“Also recorded” adds a separate entry of the source. Where two headings read alike, the source gives them in different places.
Experiments:
human 5-HT2AR [1] = molecular target: T1, human 5-HT2AR (Homo sapiens, UniProt P28223); test: biochemical; format: binding; conditions: read-out: binding affinity (Ki) 5-HT2AR
T1 construct: expressed in transfected cells
Protocol: (§1) Receptor Binding Assays. In vitro binding assay and Ki data were performed by the US National Institute of Mental Health Psychoactive Drug Screening Program (NIMH PDSP). Drugs were screened against recombinant, stably expressed human 5-HT2AR, 5-HT2BR, 5-HT2CR and H1. For specific binding assays please refer to detailed procedures at https://pdspdb.unc.edu/pdspWeb/ (Besnard, J. et al., Nature, 492, 215-220, 2012).

human 5-HT2BR [2] = molecular target: T2, human 5-HT2BR (Homo sapiens, UniProt P41595); test: biochemical; format: binding; conditions: for Ki: read-out: binding affinity (Ki) 5-HT2BR; for specificity / selectivity for 5-HT2BR over other 5-HT2R subtypes: radioligand binding
T2 construct: expressed in transfected cells
T2 sequence (P41595 whole entry): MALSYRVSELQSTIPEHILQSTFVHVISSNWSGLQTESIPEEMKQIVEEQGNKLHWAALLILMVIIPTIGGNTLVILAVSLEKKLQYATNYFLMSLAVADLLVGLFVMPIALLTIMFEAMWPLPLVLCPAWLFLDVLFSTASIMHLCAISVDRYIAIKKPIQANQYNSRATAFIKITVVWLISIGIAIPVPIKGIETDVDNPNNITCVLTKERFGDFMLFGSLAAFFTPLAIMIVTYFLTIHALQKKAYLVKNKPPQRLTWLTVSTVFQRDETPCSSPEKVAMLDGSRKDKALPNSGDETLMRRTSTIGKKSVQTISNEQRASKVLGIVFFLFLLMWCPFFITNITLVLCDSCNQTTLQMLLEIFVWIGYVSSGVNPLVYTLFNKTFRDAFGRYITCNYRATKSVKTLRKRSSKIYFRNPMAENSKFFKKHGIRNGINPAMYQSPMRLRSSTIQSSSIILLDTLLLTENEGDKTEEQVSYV
Protocol: as §1

human 5-HT2CR [3] = molecular target: T3, human 5-HT2CR (Homo sapiens, UniProt P28335); test: Radioligand binding assay (NIMH PDSP), 5-HT2CR; conditions: read-out: binding affinity (Ki) 5-HT2CR
T3 construct: expressed in transfected cells
T3 sequence (P28335 33-458): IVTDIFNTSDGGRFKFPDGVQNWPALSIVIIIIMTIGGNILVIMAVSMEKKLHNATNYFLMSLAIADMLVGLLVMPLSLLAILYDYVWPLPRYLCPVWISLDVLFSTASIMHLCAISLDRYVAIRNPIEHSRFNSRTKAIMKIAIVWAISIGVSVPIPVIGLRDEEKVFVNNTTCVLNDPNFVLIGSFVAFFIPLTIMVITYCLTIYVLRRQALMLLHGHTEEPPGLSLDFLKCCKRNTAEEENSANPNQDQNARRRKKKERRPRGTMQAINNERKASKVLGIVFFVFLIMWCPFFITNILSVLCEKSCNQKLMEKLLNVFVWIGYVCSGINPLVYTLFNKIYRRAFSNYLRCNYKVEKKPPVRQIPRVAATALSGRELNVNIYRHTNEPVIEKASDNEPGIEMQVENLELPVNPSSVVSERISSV
Protocol: as §1

scn1lab mutant zebrafish [4] = test: Locomotion assay of high-velocity seizure-like swim behavior; format: in vivo, zebrafish (Danio rerio); conditions: for effect on seizure-like swim behavior (change in mean velocity): commercial 5-HT2BR/dopamine agonists, three concentrations
Excerpt: Zebrafish maintenance. Zebrafish were raised under standard laboratory conditions in accordance with requirements outlined in the Guide for the Care and Use of Animals (ebrary Inc., 2011) and experiments were approved by the Institutional Animal Care and Use Committee (protocol #AN108659-03). Embryos were obtained by natural spawning of scn1lab (didy^s552) heterozygous animals that had been outcrossed to TL strain. Homozygous scn1lab mutants (n=2500) have dispersed melanosomes and appear visibly darker by 3 dpf compared to WT larvae.
(§2) Seizure monitoring. At 5 dpf individual zebrafish larvae were placed into a single well of a clear flat-bottomed 96-well microplate containing embryo media. Larvae were selected randomly as sex determination is not possible at this stage of development. All drug screening experiments were conducted in an unbiased manner by investigators blinded to the test compounds and all files coded for post hoc analysis. Microplates were placed inside the DanioVision and acclimated for 20 min at room temperature. Locomotion plots were obtained for each well at a recording epoch of 10 min using EthoVision XT software (DanioVision, Noldus Information Technology). Seizure scoring was performed using the following three-stage scale established for pentylenetetrazole-induced seizures: Stage 0, no or very little swim activity; Stage I, increased, brief bouts of swim activity; Stage II, rapid “whirlpool-like” circling swim behavior; and Stage III, paroxysmal whole-body clonus-like convulsions, and a brief loss of posture. WT fish are typically scored at Stage 0 or I. Plots were analyzed for distance travelled (in millimeters) and mean velocity (in millimeters per second). After 90 mins of drug exposure larvae were examined for toxic side-effects. Compounds that decreased or stopped the larva heartbeat, or reduced or eliminated the escape response when touched, were considered toxic.
Statistics. Data are presented as the mean±standard error of the mean (SEM), unless otherwise stated. For behavior analysis, the threshold for a change in mean swim velocity ≥40% (>1.5×SD of 250 control treated scn1lab) is considered significant. For comparison between more than two groups one-way ANOVA analysis was used. […] Differences considered statistically significant are indicated with asterisks (*P<0.05; **P<0.01).

scn1lab mutant zebrafish [5] = test: Local field potential (LFP) electrophysiology of electrographic seizure events; format: in vivo, zebrafish (Danio rerio); conditions: 10 min LFP recording, 5 dpf larvae
Protocol: For electrophysiology studies, zebrafish larvae were anesthetized with cold and immobilized in 1.2% agarose; local field potential (LFP) recordings were obtained from forebrain or optic tectum structures using a single-electrode approach, as previously described (Baraban, S. C. et al., Neuroscience, 131, 759-768, 2005). Agarose-embedded LFP recording sessions of 10 min were obtained at 1 kHz. Epileptiform events were identified post hoc and defined as multi-spike or poly-spike upward or downward membrane deflections greater than 3× baseline noise level and 150-250 ms in duration (interictal-like) or greater than 5× baseline noise, multi-spike and >500 ms in duration (ictal-like); both events were counted using threshold detection settings in Clampfit (Molecular Devices; Sunnyvale, Calif.). During electrophysiology experiments larvae were continuously monitored for blood flow and heart rate using an Axiocam digital camera at video frame rate.
Monitoring electrographic brain activity to confirm seizure suppression is an essential assay to eliminate false positives from behavioral testing (Griffin, A. et al., Frontiers in Pharmacology, 9, 2018). By placing a microelectrode into a visually identified brain region of an agar-immobilized zebrafish larval, stable local field potential (LFP) recordings can be monitored for several hours (Baraban, S. C. et al., Nat Commun, 4, 2410, 2013). At 5 dpf LFP recordings of scn1Lab zebrafish larvae show an average of 250 abnormal electrographic seizure events during a 10 min recording epoch.

human H1 receptor = human H1 receptor (Homo sapiens, UniProt P35367); test: Radioligand binding assay (NIMH PDSP), H1; set-up: expressed in transfected cells; conditions: read-out: binding affinity (Ki) H1
Sequence of human H1 receptor (P35367 whole entry): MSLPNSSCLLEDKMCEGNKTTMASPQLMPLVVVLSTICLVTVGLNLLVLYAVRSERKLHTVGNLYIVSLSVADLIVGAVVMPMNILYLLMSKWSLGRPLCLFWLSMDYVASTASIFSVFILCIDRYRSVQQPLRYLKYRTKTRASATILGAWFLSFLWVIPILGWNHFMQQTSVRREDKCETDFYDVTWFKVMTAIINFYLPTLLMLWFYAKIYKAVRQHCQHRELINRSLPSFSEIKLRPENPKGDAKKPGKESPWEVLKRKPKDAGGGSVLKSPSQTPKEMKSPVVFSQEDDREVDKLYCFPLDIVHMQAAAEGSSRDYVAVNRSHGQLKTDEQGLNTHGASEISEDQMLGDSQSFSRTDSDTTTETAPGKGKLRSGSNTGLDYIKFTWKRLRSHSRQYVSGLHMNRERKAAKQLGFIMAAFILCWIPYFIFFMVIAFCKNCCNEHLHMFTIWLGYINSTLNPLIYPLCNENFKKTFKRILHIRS
Protocol: as §1

scn1lab mutant zebrafish [6] = test: Toxicity in larvae after 90 min drug exposure (heartbeat, escape response); format: in vivo, zebrafish (Danio rerio)
Protocol: as §2

human 5-HT2AR [7] = molecular target: T1, human 5-HT2AR; conditions: read-out: binding affinity (Ki) 5-HT2A / 5-HT2AR, cited from earlier work
human 5-HT2BR [8] = molecular target: T2, human 5-HT2BR
human 5-HT2CR [9] = molecular target: T3, human 5-HT2CR
[10] = clemizole analogs, recombinant human receptor
[11] = known drugs and commercial compounds
[12] = known drugs and commercial compounds; read-out: binding affinity (Ki) 5-HT2B / 5-HT2BR; cited from earlier work
[13] = known drugs and commercial compounds; read-out: binding affinity (Ki) 5-HT2C / 5-HT2CR; cited from earlier work
[14] = 30 and 90 min exposure, threshold ≥40%

T1 sequence (P28223 whole entry): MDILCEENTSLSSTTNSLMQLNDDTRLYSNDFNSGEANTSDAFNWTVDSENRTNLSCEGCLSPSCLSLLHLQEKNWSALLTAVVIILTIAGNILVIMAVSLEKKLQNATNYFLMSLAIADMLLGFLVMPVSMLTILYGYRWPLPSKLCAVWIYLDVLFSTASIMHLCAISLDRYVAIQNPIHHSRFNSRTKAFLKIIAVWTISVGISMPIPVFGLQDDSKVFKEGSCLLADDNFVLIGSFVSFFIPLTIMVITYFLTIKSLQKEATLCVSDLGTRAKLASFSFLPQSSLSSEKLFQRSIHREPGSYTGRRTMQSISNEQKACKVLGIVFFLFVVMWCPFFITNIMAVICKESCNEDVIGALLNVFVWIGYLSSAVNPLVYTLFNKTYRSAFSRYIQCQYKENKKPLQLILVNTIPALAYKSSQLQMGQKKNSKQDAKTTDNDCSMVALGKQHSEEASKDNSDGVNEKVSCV

c1ccc2c(c1)nc(CN1CCCC1)n2CC1CCCC1 [Compound 20, 1-(Cyclopentylmethyl)-2-[(pyrrolidin-1-yl)methyl]-1H-benzimidazole]
Ki (human 5-HT2AR [1]): > 10000 nM
Ki (human 5-HT2BR [2]; [10]): 772 nM
specificity / selectivity for 5-HT2BR over other 5-HT2R subtypes (human 5-HT2BR [2]): specificity for 5-HT2BR over other 5-HT2R subtypes; also recorded: significant preference for 5-HT2BR
Ki (human 5-HT2CR [3]): > 10000 nM
suppression of seizure-like swim behavior (change in mean velocity) (scn1lab mutant zebrafish [4]; independently resynthesized compounds retested at 10, 50, 100 and 250 μM, 30 and 90 min exposure, threshold ≥40%): reduced the high-velocity seizure-like swim behavior
suppression of seizure-like swim behavior (change in mean swim velocity) (scn1lab mutant zebrafish [4]; initial library screen at 100 μM and 250 μM, 5 dpf larvae, threshold reduction ≥40%): effective in suppressing
frequency of electrographic seizure (epileptiform) events (scn1lab mutant zebrafish [5]; 100 μM): significant changes in the frequency of events; also recorded: significant suppression of electrographic seizure activity
Ki (human H1 receptor; [10]): 161 nM

Clc1ccc(Cn2c(CN3CCOCC3)nc3ccccc32)cc1 [Compound 23]
Ki (human 5-HT2AR [1]): > 10000 nM
specificity / selectivity for 5-HT2BR over other 5-HT2R subtypes (human 5-HT2BR [2]): selectivity for 5-HT2BR
Ki (human 5-HT2BR [2]): 515 nM
Ki (human 5-HT2CR [3]): > 10000 nM
toxicity after 90-min exposure (scn1lab mutant zebrafish [6]; initial library screen, concentration not given): toxic
Ki (human H1 receptor): 34 nM

CC(C)C[C@H]1C(=O)N2CCC[C@H]2[C@]2(O)O[C@](NC(=O)[C@@H]3C=C4c5cccc6[nH]c(Br)c(c56)C[C@H]4N(C)C3)(C(C)C)C(=O)N12 [bromocriptine]
toxicity after 90-min exposure (scn1lab mutant zebrafish [6]; concentrations higher than 10 μM): toxicity

C=CCN1C[C@H](C(=O)N(CCCN(C)C)C(=O)NCC)C[C@@H]2c3cccc4[nH]cc(c34)C[C@H]21 [cabergoline]
effect on convulsive swim behavior (scn1lab mutant zebrafish [4]; 250 μM): significantly reduced convulsive swim-behavior
Ki (human 5-HT2AR [7]; [11]): 6.17 nM
Ki (human 5-HT2BR [8]; [12]): 1.2 nM
Ki (human 5-HT2CR [9]; [13]): 692 nM

CC[C@@H](CO)NC(=O)[C@@H]1C=C2c3cccc4[nH]cc(c34)C[C@H]2N(C)C1 [methylergonovine, reference compound]
effect on seizure-like swim behavior (change in mean velocity) (scn1lab mutant zebrafish [4]; [14]): suppressed convulsive swim behaviors in a concentration-dependent manner
frequency of electrographic seizure (epileptiform) events (scn1lab mutant zebrafish [5]; 250 μM): significant changes in the frequency of events; also recorded: significantly suppressed the frequency of electrographic seizure events
Ki (human 5-HT2BR [8]; [12]): 2.2 nM
Ki (human 5-HT2CR [9]; [13]): 4.6 nM

CC(N)Cc1cccc(C(F)(F)F)c1 (stereo not shown) [norfenfluramine]
effect on seizure-like swim behavior (change in mean velocity) (scn1lab mutant zebrafish [4]; [14]): suppressed convulsive swim behaviors in a concentration-dependent manner
Ki (human 5-HT2AR [7]): 194 nM
Ki (human 5-HT2BR [8]; read-out: binding affinity (Ki) 5-HT2B / 5-HT2BR; known drugs and commercial compounds; cited from earlier work): 18 nM
Ki (human 5-HT2CR [9]; read-out: binding affinity (Ki) 5-HT2C / 5-HT2CR; known drugs and commercial compounds; cited from earlier work): 306 nM

c1cnc(N2CCN(Cc3ccc4c(c3)OCO4)CC2)nc1 [piribedil]
toxicity after 90-min exposure (scn1lab mutant zebrafish [6]; 100 μM): toxicity
toxicity after 90-min exposure (scn1lab mutant zebrafish [6]; 250 μM): toxicity
Ki (human 5-HT2AR [7]; [11]): > 10000 nM
Ki (human 5-HT2CR [9]; [13]): > 10000 nM

— US20220226508A1, “METHODS AND COMPOSITIONS FOR TREATING EPILEPSY” (THE REGENTS OF THE UNIVERSITY OF CALIFORNIA, priority 2019, published 2022)
